Test results: patent US20250177537A1, “AN ANTIBIOTIC, METHOD OF PREPARATION AND METHOD OF TREATMENT THEREOF” (National Taiwan University, priority 2023, published 2025)
Converted amounts (≈) assume the structure as drawn. Where two headings read alike, the source gives them in different places. Bridge positions count the residues as written; N and C are the ends. Square brackets hold non-standard residues; d marks the D form. Peptide text beside a SMILES is read from it. * marks the point of attachment. d(aThr) = C[C@@H](O)[C@@H](N)C(=O)O; Palmitoyl = CCCCCCCCCCCCCCCC(=O)*; dPip = O=C(O)[C@H]1CCCCN1; hSer = N[C@@H](CCO)C(=O)O; Dap = NC[C@H](N)C(=O)O

Tests used:
[1] = system: Pseudomonas aeruginosa; assay: Activity spectrum MIC; format: cell-based; conditions: PBA 50 μg/mL
[2] = system: vancomycin-resistant strains (VRE); assay: Activity spectrum MIC; format: cell-based, Enterococcus; conditions: PBA 50 μg/mL
[3] = system: B. cereus; assay: Activity spectrum MIC; format: cell-based; conditions: PBA 50 μg/mL
[4] = system: Streptococcus species; assay: Activity spectrum MIC; format: cell-based; conditions: PBA 50 μg/mL
[5] = system: HEK293T cells; assay: cells; format: cell-based; conditions: 24 h
Protocol: HEK293T cells were cultured in Dulbecco's Modified Eagle's Medium supplemented with 10% fetal bovine serum and 1% Antibiotic antimycotic at 37° C. under humidified atmosphere and 5% CO2. Cytotoxicity assays began by seeding 2×10^4 HEK293T cells per well in a 96-well plate. Cells were given 20 to 24 h to adhere, washed with fresh medium, and then a 2-fold dilution series of the compounds of interest were added. The highest concentration tested for S1, B1, and PBA were 128, 128, and 1,280 μg/mL, respectively; for the B1-plus-PBA series, the PBA concentration was held constant at 5 μg/mL while the B1 concentration varied. After incubation for 24 h, the medium was discarded, the cells rinsed with PBS buffer, and 100 μL of 0.5 mg/mL MTT in […] was added to each well. The plate was incubated for 2 h before discarding the MTT solution. The cells were wash with PBS, and then the resulting purple crystals were dissolved by DMSO (100 μL per well). Absorbance at 570 nm for each well was recorded, and cell viability (%) was calculated as the ratio of the absorbance the compound-treated well vs. the no-compound well. This assay was performed in triplicate.

[6] = system: Rhodococcus hoagii; assay: Activity spectrum MIC; format: cell-based; conditions: PBA 50 μg/mL
[7] = 31P NMR monitoring of complex formation; format: binding; conditions: B1/PBA/C10P 1:2:1, 10% D2O
Protocol: NMR experiments were conducted on a Bruker AVIII 400 (400 MHZ) spectrometer. Chemical shifts (δ) are relative to tetramethylsilane, boric acid, and phosphoric acid for ^1H, ^11B, and ^31P spectra, respectively. The ^11B spectrum of PBA (20 μL, 10.0 mg/mL) in 10% D2O (550 μL) was first obtained. Next, C10P (17 μL, 16 mg/mL) was added directly into the NMR tube, and both the ^11B and ^31P spectra were obtained. B1 (1.2 mg, powder) was then added, followed spectra acquisition. Finally, CaCl2) was added to the solution in the NMR tube, so that the final calcium concentration is ˜5 mM. Note that the ^31P spectrum of C10P alone was collected separately.
Mass spectrometry (MS) and nuclear magnetic resonance (NMR) offered additional evidence of complex formation at the molecular level. High-resolution native electrospray ionization mass spectrometry (HR-NESI-MS) is commonly used to study noncovalent interactions.^[15] Using HR-NESI-MS, we observed the expected m/z for binary, ternary, and quaternary complexes at both the positive and negative modes (FIGS. 5B and 5C, FIGS. 15-18 and FIGS. 23-24). We then performed phosphorous (^31P) and boron (^11B) NMR to monitor the complex formation process. […] When B1 was added to the C10P/PBA mixture, no phosphorous signal could be detected at δ 3 or greater, and two new peaks at δ 0.4 and 0.0 appeared. […]

[8] = system: Staphylococcus species; assay: Activity spectrum MIC; format: cell-based; conditions: PBA 50 μg/mL
[9] = system: Escherichia coli; assay: Activity spectrum MIC; format: cell-based; conditions: PBA 50 μg/mL
[10] = system: E. faecalis; assay: Activity spectrum MIC; format: cell-based; conditions: PBA 50 μg/mL
[11] = system: Bacillus subtilis; conditions: for antimicrobial activity: absence of PBA; for PBA dependence of bacterial growth suppression: with vs without PBA; for MIC: no PBA
Protocol: We then investigated the boron dependence of B1 by determining the MIC of B1 across […] of PBA concentrations (0.5 μg/mL to 100 μg/mL, FIG. 4B).

[12] = system: methicillin-resistant strains (MRSA); assay: Activity spectrum MIC; format: cell-based, Staphylococcus; conditions: PBA 50 μg/mL
[13] = system: Bacillus subtilis; assay: Growth inhibitory zone assay; format: cell-based; conditions: mixed with B1 at 50 mM each, 12 hours, room temperature
Protocol: The antimicrobial activities of our peptide (B1) in combination with various boron species were tested by the growth inhibitory zone assay (FIG. 26). B1 was mixed with various boron species at 50 mM each (final concentration). These mixtures were then spotted on a lawn of Bacillus subtilis. After 12 hours of incubation at room temperature, combinations effective at inhibiting bacterial growth would appear as a circular zone.

In the case of `CCCCCCCCCCCCCCCC(=O)N[C@@H](CO)C(=O)N[C@H]1CNC(=O)[C@@H]2CCCN2C(=O)[C@H]([C@@H](C)CC)NC(=O)[C@@H]([C@@H](C)O)NC(=O)CNC(=O)[C@H](CO)NC(=O)CNC(=O)[C@H](CC(=O)O)NC(=O)CNC(=O)[C@H]2CCCCN2C1=O` [B1] (Palmitoyl-S[Dap][dPip]GDGSG[d(aThr)]IP; lactam 2-C), the antibacterial activity [1] is reported as “no activity”, the susceptibility [2] is reported as “similarly susceptible” and the growth inhibition [3] is reported as “inhibited the growth”. For the same compound, the growth inhibition [4] was “inhibited the growth”, the IC50 [5] was “greater than 128 μg/mL” and the growth inhibition [6] was “inhibited the growth”. The C10P sequestration [7] was “sequestered all C10P”, the growth inhibition [8] was “inhibited the growth” and the antibacterial activity [9] was “no activity”. For the same compound, the growth inhibition [10] was “inhibited the growth”, the “dependence of antibacterial activity on calcium” value ([11]; LB, PBA 50 μg/mL (0.41 mM), FIG. 4A) was “completely independent of calcium” and the antimicrobial activity ([11]; no calcium supplements) was “none of them were active”. The “response of antimicrobial activity to varying calcium concentration” value ([11]; fixed PBA 100 μg/mL (0.82 mM)) was “no change”, the “antimicrobial activity when no calcium was added” value ([11]; fixed PBA 100 μg/mL (0.82 mM), no calcium added) was “equally effective” and the “PBA dependence of bacterial growth suppression” value [11] was “only able to suppress bacterial growth in the presence of PBA”. For the same compound, the susceptibility [12] was “similarly susceptible”.

In the case of `OB(O)c1ccccc1` [PBA, phenylboronic acid, reference compound], the IC50 ([5]; Homo sapiens, HEK-293T) is reported as > 128 µg/mL and the “growth inhibitory zone, boron species in combination with B1” value (“growth inhibitory zone, boron species” below) [13] is reported as “effective”.

With `OB(O)c1cc(C(F)(F)F)cc(C(F)(F)F)c1` [3,5-(bis(trifluoromethyl)phenyl) boronic acid] the “growth inhibitory zone, boron species” value [13] was “effective”.

For `Nc1ccc(B(O)O)cc1` [4-aminophenylboronic acid], the “growth inhibitory zone, boron species” value [13] was “effective”.

With `Cc1cc(C)cc(B(O)O)c1` [3,5-dimethylphenylboronic acid] the “growth inhibitory zone, boron species” value [13] was “effective”.

In the case of `OB(O)c1cccc(O)c1` [3-hydroxylphenylboronic acid], the “growth inhibitory zone, boron species” value [13] is reported as “effective”.

In the case of `CCCCCCCCCCCCCCCC(=O)N[C@@H](CCO)C(=O)N[C@H]1CNC(=O)[C@@H]2CCCN2C(=O)[C@H]([C@@H](C)CC)NC(=O)[C@@H]([C@@H](C)O)NC(=O)CNC(=O)[C@H](CO)NC(=O)CNC(=O)[C@H](CC(=O)O)NC(=O)CNC(=O)[C@H]2CCCCN2C1=O` [B4] (Palmitoyl-[hSer][Dap][dPip]GDGSG[d(aThr)]IP; lactam 2-C), the antimicrobial activity ([11]; 5 mM calcium) is reported as “weak antimicrobial activity”, the antimicrobial activity ([11]; no calcium supplements) is reported as “none of them were active” and the “effect of calcium concentration on MIC” value ([11]; calcium 5 to 0.5 mM, PBA present) is reported as “unaffected”.

For `OB(O)c1ccncc1` [4-pyridylboronic acid], the “growth inhibitory zone, boron species” value [13] was “effective”.

With `O=Cc1ccccc1B(O)O` [2-formylphenylboronic acid] the “growth inhibitory zone, boron species” value [13] was “effective”.

With `Cc1ccc(B(O)O)cc1` [4-tolylboronic acid] the “growth inhibitory zone, boron species” value [13] was “effective”.

With `OB(O)c1ccc(O)cc1` [4-hydroxylphenylboronic acid] the “growth inhibitory zone, boron species” value [13] was “effective”.

For `OB(O)c1cccnc1` [3-pyridylboronic acid], the “growth inhibitory zone, boron species” value [13] was “effective”.

In the case of `CCCCCCCCCCCCCCCC(=O)N[C@@H](CC(=O)O)C(=O)N[C@H]1CNC(=O)[C@@H]2CCCN2C(=O)[C@H]([C@@H](C)CC)NC(=O)[C@@H]([C@@H](C)O)NC(=O)CNC(=O)[C@H](CC(=O)O)NC(=O)CNC(=O)[C@H](CC(=O)O)NC(=O)CNC(=O)[C@H]2CCCCN2C1=O` [S1, reference compound] (Palmitoyl-D[Dap][dPip]GDGDG[d(aThr)]IP; lactam 2-C (inferred)), the “potency in the presence of PBA” value ([11]; PBA 100 μg/mL (0.82 mM)) is reported as “dramatically decreased”, the MIC ([11]; [Ca2+]=0.5 mM) is reported as 16 µg/mL (≈ 12.7 µM) and the MIC ([11]; calcium 5 mM) is reported as 4 µg/mL (≈ 3.17 µM).

In the case of `CSc1ccc(B(O)O)cc1` [4-(methylthio) phenylboronic acid], the “growth inhibitory zone, boron species” value [13] is reported as “effective”.

In the case of `OB(O)c1ccc(F)cc1` [4-fluorophenylboronic acid], the “growth inhibitory zone, boron species” value [13] is reported as “effective”.

With `COC(=O)c1ccc(B(O)O)cc1` [4-methoxycarbonyl phenylboronic acid] the “growth inhibitory zone, boron species” value [13] was “effective”.

With `N#Cc1ccc(B(O)O)cc1` [4-cyanophenylboronic acid] the “growth inhibitory zone, boron species” value [13] was “effective”.

For `CCCCCCCCCCCCCCCC(=O)N[C@@H](CO)C(=O)N[C@H]1CNC(=O)[C@@H]2CCCN2C(=O)[C@H]([C@@H](C)CC)NC(=O)[C@@H]([C@@H](C)O)NC(=O)CNC(=O)[C@H](CCO)NC(=O)CNC(=O)[C@H](CC(=O)O)NC(=O)CNC(=O)[C@H]2CCCCN2C1=O` [B3, Ser-Dap-Pip-Gly-Asp-Gly-Hse-Gly-Thr-Ile-Pro] (Palmitoyl-S[Dap][dPip]GDG[hSer]G[d(aThr)]IP; lactam 2-C), the antimicrobial activity ([11]; no calcium supplements) was “none of them were active” and the “PBA dependence of bacterial growth suppression” value [11] was “only able to suppress bacterial growth in the presence of PBA”.

For `COc1ccc(B(O)O)cc1` [4-methoxyphenylboronic acid], the “growth inhibitory zone, boron species” value [13] was “effective”.
